Like-named read-outs stand apart in the source and are kept apart here.
Legend:
hCYP2D6 1 [1] = details: cited from earlier work; for Km: racemic bufuralol
hCYP2D6 [2] = biological target: T1, hCYP2D6 (Homo sapiens, UniProt P10635)
V79MZh2D6 cells [3] = assay: Supplementation of culture medium with heme sources (cytotoxic limit, bufuralol hydroxylase activity); details: up to the cytotoxic limit
V79MZh2D6 cells [4] = test system: V79MZh2D6 cells
hCYP2D6 9 = hCYP2D6 9 (Homo sapiens, UniProt P10635, DEL281-281); assay: Effect of quinidine on the stability of hCYP2D6 (CO difference spectra); details: hCYP2D6 9 (V79MZh2D6*9); quinidine added to the culture medium during cultivation
Procedure: For the preparation of a cell homogenate, the V79MZ cells were cultured in at least three 250 ml tissue culture flasks up to a confluence of 80-100%. […] The medium was discarded, followed by rinsing twice with 5 ml icecold buffer (100 mM potassium phosphate, pH 7.4). The cells were loosened from the dish by means of a rubber scraper into 4 ml of icecold buffer, combined and pelleted by centrifugation for 10 min at 1500×g and 4° C. […] All aliquots were shock frozen in liquid nitrogen to disrupt the cells and afterwards stored at −80° C. until use.
The supernatant was introduced into a 2 ml glas-on-glas homogenizator, reduced by adding several crystals of sodium dithionite (Sigma, Deisenhofen) followed by 15 strokes, and split up between two quartz cuvettes.

hCYP2D6 [5] = biological target: T1, hCYP2D6; assay: Effect of DMSO on tamoxifen-4-hydroxylase activity; assay type: biochemical; set-up: expressed in transfected cells; host or cells: V79MZ Chinese hamster fibroblasts (V79MZh2D6*1, DSM ACC2446; also V79MZh2D6*1-H and -S)
human liver microsomes = details: cited from earlier work; for contribution to the 4-hydroxylation of tamoxifen: human liver microsomes (Crewe et al., 1997); for tamoxifen-4-hydroxylation activity: 1 μM tamoxifen (Crewe et al., 1997)
hCYP2D6 1 [6] = biological target: T2, hCYP2D6 1 (Homo sapiens, UniProt P10635); details: cited from earlier work
hCYP2D6 1 [7] = biological target: T2, hCYP2D6 1; details: V79MZh2D6*1 homogenate, NADPH (Bogni, 1999); racemic bufuralol; cited from earlier work
hCYP2D6*1 and hCYPOR = hCYP2D6*1 and hCYPOR (Homo sapiens, UniProt P10635); details: V79MZh2D6*1-hOR homogenate; 200 μM racemic bufuralol
Procedure: 30 μg of Sca I linearized pSV450h2D6*1 DNA and 1 μg of Sca I linearized pRc/RSV-hCYPOR DNA were transfected. […] As in the case of transfection samples T1-T5, the expression vector pSV450h2D6*1 was employed in a 30fold excess over resistance vector pRc/RSV-hCYPOR.

[8] = AHH-1 TK+/− (h2D6Metv2) microsomes, NADPH (Penman et al., 1993)
[9] = Hep G2 cell lysate, CuOOH (Tyndale et al., 1991a)
[10] = S. cerevisiae W(R) microsomes, Yred/NADPH (Oscarson et al., 1997)
[11] = Sf9 insect cells membranes, CYPOR/NADPH (Evert et al., 1997)
[12] = Sf9 insect cells membranes, CYPOR/NADPH (Patten et al., 1996)
[13] = AHH-1 TK+/− (h2D6Val/OR) microsomes, CYPOR/NADPH (Gentest, produkt # M117r)
[14] = E. coli, purified, CYPOR/NADPH (Gillam et al., 1995)
[15] = Sf9 insect cells cell extract, CYPOR/NADPH (Paine et al., 1996)

T2 sequence (P10635 whole entry): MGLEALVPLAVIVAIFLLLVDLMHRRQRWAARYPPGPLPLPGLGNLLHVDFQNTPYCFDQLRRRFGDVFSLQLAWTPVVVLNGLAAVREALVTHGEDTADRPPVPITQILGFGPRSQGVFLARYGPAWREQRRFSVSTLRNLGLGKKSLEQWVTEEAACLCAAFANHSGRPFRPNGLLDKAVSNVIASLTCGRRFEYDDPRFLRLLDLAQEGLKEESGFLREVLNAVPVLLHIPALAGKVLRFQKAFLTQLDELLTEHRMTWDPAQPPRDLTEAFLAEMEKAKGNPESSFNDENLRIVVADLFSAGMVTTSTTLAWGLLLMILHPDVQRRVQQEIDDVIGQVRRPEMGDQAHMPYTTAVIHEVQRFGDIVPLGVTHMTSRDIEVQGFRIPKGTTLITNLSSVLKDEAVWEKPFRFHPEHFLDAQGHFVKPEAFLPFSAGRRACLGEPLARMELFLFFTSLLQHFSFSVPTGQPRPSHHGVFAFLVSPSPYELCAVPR
T1 sequence (P10635 whole entry): as above
Chain of hCYP2D6 9 (P10635 with tags, fused parts or gaps DEL281-281): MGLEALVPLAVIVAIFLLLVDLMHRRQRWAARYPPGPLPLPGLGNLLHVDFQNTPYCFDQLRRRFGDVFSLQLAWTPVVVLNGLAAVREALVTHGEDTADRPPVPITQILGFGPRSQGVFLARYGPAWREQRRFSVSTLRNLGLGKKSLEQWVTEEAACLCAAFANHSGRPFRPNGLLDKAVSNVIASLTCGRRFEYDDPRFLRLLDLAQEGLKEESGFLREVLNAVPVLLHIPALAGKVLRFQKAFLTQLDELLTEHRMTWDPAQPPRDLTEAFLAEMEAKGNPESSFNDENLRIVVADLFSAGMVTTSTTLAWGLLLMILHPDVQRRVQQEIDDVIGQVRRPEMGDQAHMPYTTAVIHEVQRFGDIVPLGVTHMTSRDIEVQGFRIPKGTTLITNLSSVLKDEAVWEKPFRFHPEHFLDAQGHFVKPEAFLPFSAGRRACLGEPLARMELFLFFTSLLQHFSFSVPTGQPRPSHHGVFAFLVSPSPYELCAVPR

CCc1cccc2cc([C@H](O)CNC(C)(C)C)oc12 [(+)-bufuralol]
Vmax (+) (hCYP2D6 1 [1]; AHH-1 TK+/− (2D6Met/Hol) cell lysate, NADPH (Crespi et al., 1991)): 68 ± 0 pmol/mg/min | Vmax (+) (hCYP2D6 1 [1]; AHH-1 TK+/− (h2D6Metv2) cell lysate, NADPH (Penman et al., 1993)): 126 ± 1 pmol/mg/min | Reaction rate (+) (hCYP2D6 1 [1]; [8]): 4.5 min⁻¹ | Vmax (+) (hCYP2D6 1 [1]; [8]): 723 ± 35 pmol/mg/min | Vmax (+) (hCYP2D6 1 [1]; COS-1 cells homogenate, CYPOR/NADPH (Johansson et al., 1994)): 3.4 pmol/mg/min | Vmax (+) (hCYP2D6 1 [1]; COS-1 cells homogenate, NADPH (Kagimoto et al., 1990)): 20 to 50 pmol/mg/min | Reaction rate (+) (hCYP2D6 1 [1]; [9]): 2.3 min⁻¹ | Vmax (+) (hCYP2D6 1 [1]; [9]): 34.1 pmol/mg/min | Reaction rate (+) (hCYP2D6 1 [1]; [10]): 10 min⁻¹ | Vmax (+) (hCYP2D6 1 [1]; [10]): 116 pmol/mg/min | Reaction rate (+) (hCYP2D6 1 [1]; [11]): 26.2 ± 0.4 min⁻¹ | Vmax (+) (hCYP2D6 1 [1]; [11]): 17500 ± 2700 pmol/mg/min | Reaction rate (+) (hCYP2D6 1 [1]; [12]): 0.96 min⁻¹ | Vmax (+) (hCYP2D6 1 [1]; [12]): 500 to 1000 pmol/mg/min

CC/C(=C(\c1ccccc1)c1ccc(OCC[N+](C)(C)[O-])cc1)c1ccccc1 [Z-Tamoxifen-N-oxide]
metabolism by V79MZh2D6 homogenate (hCYP2D6-catalyzed hydroxylation) (hCYP2D6 [2]): only to a minor extent

hemin chloride
bufuralol hydroxylase activity per mg total protein in the cell homogenate after supplementation (V79MZh2D6 cells [3]): no increased bufuralol hydroxylase activity | cytotoxic limit (V79MZh2D6 cells [4]): 10 µM

C=C[C@H]1C[N@@]2CC[C@H]1C[C@@H]2[C@@H](O)c1ccnc2ccc(OC)cc12 [quinidine]
increase in the amount of cytochrome P450 (hCYP2D6 9): 4-6 fold

C[S+](C)[O-] [DMSO, dimethylsulfoxide]
tamoxifen-4-hydroxylase activity relative to that obtained at […] DMSO (hCYP2D6 [5]; 10% DMSO): about 20% | effect on tamoxifen-4-hydroxylase activity (hCYP2D6 [5]; up to a DMSO concentration of […]): only sligthly affected

CC/C(=C(\c1ccccc1)c1ccc(OCCNC)cc1)c1ccccc1 [Z-N-demethyl-tamoxifen]
metabolism by V79MZh2D6 homogenate (hCYP2D6-catalyzed hydroxylation) (hCYP2D6 [2]): proceeded well

CC/C(=C(\c1ccccc1)c1ccc(OCCN)cc1)c1ccccc1 [Z-N-didemethyl-tamoxifen]
metabolism by V79MZh2D6 homogenate (hCYP2D6-catalyzed hydroxylation) (hCYP2D6 [2]): negligible

CC/C(=C(\c1ccccc1)c1ccc(OCCN(C)C)cc1)c1ccccc1 [tamoxifen]
contribution to the 4-hydroxylation of tamoxifen (human liver microsomes; hCYP2C9*1): + | contribution to the 4-hydroxylation of tamoxifen (human liver microsomes; hCYP2D6*1): + | contribution to the 4-hydroxylation of tamoxifen (human liver microsomes; hCYP2E1): − | contribution to the 4-hydroxylation of tamoxifen (human liver microsomes; hCYP3A4): + | tamoxifen-4-hydroxylation activity (human liver microsomes; human liver microsomes of extensive metabolizers): 1.1-3 pmol/min/mg protein | tamoxifen-4-hydroxylation activity (human liver microsomes; human liver microsomes of poor metabolizers): 0.7-0.8 pmol/min/mg protein

CCc1cccc2cc(C(O)CNC(C)(C)C)oc12 (racemic) [racemic bufuralol]
Reaction rate (+/−) (hCYP2D6 1 [6]; [13]): 10.38 min⁻¹ | Vmax (+/−) (hCYP2D6 1 [6]; [13]): 550 pmol/mg/min | Reaction rate (+/−) (hCYP2D6 1 [6]; purified from human liver, CYPOR/NADPH (Distlerath et al., 1985)): 4.4 to 6.4 min⁻¹ | Reaction rate (+/−) (hCYP2D6 1 [1]; [14]): 1.2 ± 0.1 min⁻¹ | Km (hCYP2D6 1 [1]; [14]): 39 ± 5 µM | Reaction rate (+/−) (hCYP2D6 1 [1]; [15]): 12.23 min⁻¹ | Vmax (+/−) (hCYP2D6 1 [1]; [15]): 370 pmol/mg/min | Km (hCYP2D6 1 [1]; [15]): 4.7 µM | Vmax (+/−) (hCYP2D6 1 [7]): 153 ± 26 pmol/mg/min | bufuralol hydroxylase activity (hCYP2D6*1 and hCYPOR): 143 ± 6 pmol/mg/min
